In patent publication US7598245B2 (Vertex Pharmaceuticals Incorporated, priority 2003, dated 2009):

What was measured:
Type in all cases: biochemical
human Src kinase = molecular target: T1, human Src kinase (Homo sapiens, UniProt P12931); assay: Src inhibition assay B: spectrophotometric (uv-vis) coupled enzyme assay; settings: 100 μM ATP
T1 construct: 25 nM of recombinant human Src kinase
Protocol: The compounds are evaluated as inhibitors of human Src kinase using either a radioactivity-based assay or spectrophotometric assay.
Src Inhibition Assay B: Spectrophotometric Assay
The ADP produced from ATP by the human recombinant Src kinase-catalyzed phosphorylation of poly Glu-Tyr substrate is quantified using a coupled enzyme assay [Fox et al. Protein Sci. 1998, 7, 2249]. In this assay one molecule of NADH is oxidised to NAD for every molecule of ADP produced in the kinase reaction. The disappearance of NADH is conveniently followed at 340 nm.
The following are the final concentrations of the assay components: 0.025 M HEPES (pH 7.6), 10 mM MgCl2, 2 mM DTT, 0.25 mg/ml poly Glu-Tyr, and 25 nM of recombinant human Src kinase. Final concentrations of the components of the coupled enzyme system are 2.5 mM phosphoenolpyruvate, 200 μM NADH, 30 μg/ml pyruvate kinase and 10 μg/ml lactate dehydrogenase.
In a typical assay, all the reaction components with the exception of ATP are pre-mixed and aliquoted into assay plate wells. Inhibitors dissolved in DMSO are added to the wells to give a final DMSO concentration of 2.5%. The assay plate is incubated at 30° C. for 10 min before initiating the reaction with 100 μM ATP. The absorbance change at 340 nm with time, the rate of the reaction, is monitored on a molecular devices plate reader. The data of rate as a function of the inhibitor concentration is fitted to competitive inhibition kinetics model to get the Ki for the compound.

PDK-1 = molecular target: T2, PDK-1 (Homo sapiens, UniProt O15530); assay: PDK-1 inhibition, radioactive-phosphate incorporation assay; settings: 40 μM ATP
T2 sequence (O15530 1-556): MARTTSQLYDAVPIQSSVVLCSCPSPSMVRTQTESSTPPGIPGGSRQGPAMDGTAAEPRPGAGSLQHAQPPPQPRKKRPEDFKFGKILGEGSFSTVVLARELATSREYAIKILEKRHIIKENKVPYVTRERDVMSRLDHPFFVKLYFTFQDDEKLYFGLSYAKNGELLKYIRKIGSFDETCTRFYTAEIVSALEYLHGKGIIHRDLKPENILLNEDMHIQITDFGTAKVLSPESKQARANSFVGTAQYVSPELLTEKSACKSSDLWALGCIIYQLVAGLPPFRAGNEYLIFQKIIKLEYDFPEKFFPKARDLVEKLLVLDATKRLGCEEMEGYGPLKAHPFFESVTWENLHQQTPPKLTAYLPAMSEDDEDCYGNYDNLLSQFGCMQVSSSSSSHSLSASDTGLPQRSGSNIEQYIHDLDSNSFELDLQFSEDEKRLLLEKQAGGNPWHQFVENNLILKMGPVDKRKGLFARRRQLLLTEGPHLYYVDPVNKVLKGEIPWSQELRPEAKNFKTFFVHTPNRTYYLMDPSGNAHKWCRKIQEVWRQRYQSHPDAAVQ
Protocol: Compounds were screened for their ability to inhibit PDK-1 using a radioactive-phosphate incorporation assay (Pitt and Lee, J. Biomol. Screen., (1996) 1, 47). Assays were carried out in a mixture of 100 mM HEPES (pH 7.5), 10 mM MgCl2, 25 mM NaCl, 2 mM DTT. Final substrate concentrations in the assay were 40 μM ATP (Sigma Chemicals) and 65 μM peptide (PDKtide, Upstate, Lake Placid, N.Y.). Assays were carried out at 30° C. and 25 nM PDK-1 in the presence of ˜27.5 nCi/μL of [γ-^32P]ATP (Amersham Pharmacia Biotech, Amersham, UK). An assay stock buffer solution was prepared containing all of the reagents listed above, with the exception of ATP, and the test compound of interest. 15 μl of the stock solution was placed in a 96 well plate followed by addition of 1 μl of 0.5 mM DMSO stock containing the test compound (final compound concentration 25 μM, final DMSO concentration […]). The plate was preincubated for about 10 minutes at 30° C. and the reaction initiated by addition of 4 μl ATP (final concentration 40 μM).
The reaction was stopped after 10 minutes by the addition of 100 μL 100 mM phosphoric acid, 0.01% Tween-20. A phosphocellulose 96 well plate (Millipore, Cat no. MAPHNOB50) was pretreated with 100 μL 100 mM phosphoric acid, 0.01% Tween-20 prior to the addition of the reaction mixture (100 μL). The spots were left to soak for at least 5 minutes, prior to wash steps (4×200 μL 100 mM phosphoric acid, 0.01% Tween-20). After drying, 20 μL Optiphase ‘SuperMix’ liquid scintillation cocktail (Perkin Elmer) was added to the well prior to scintillation counting (1450 Microbeta Liquid Scintillation Counter, Wallac).

Aurora-2 = molecular target: T3, Aurora-2 (Homo sapiens, UniProt O14965); assay: Inhibition of AUR-2, coupled enzyme assay
T3 construct: addition of 10 μL of Aurora-2 stock solution to give a final concentration of 70 nM
T3 sequence (O14965 1-403): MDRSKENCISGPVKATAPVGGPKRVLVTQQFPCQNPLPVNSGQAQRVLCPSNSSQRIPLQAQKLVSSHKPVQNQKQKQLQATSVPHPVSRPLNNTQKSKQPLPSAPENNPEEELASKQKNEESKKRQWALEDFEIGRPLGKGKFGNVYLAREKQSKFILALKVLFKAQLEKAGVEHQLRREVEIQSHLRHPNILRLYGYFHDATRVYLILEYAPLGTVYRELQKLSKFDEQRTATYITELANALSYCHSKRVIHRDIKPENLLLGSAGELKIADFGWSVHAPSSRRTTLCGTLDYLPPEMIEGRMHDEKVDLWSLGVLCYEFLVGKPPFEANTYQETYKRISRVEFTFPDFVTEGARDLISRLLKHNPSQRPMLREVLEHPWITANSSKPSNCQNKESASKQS
Protocol: Compounds are screened in the following manner for their ability to inhibit Aurora-2 using a standard coupled enzyme assay (Fox et al (1998) Protein Sci 7, 2249). To an assay stock buffer solution containing 0.1M HEPES 7.5, 10 mM MgCl2, 1 mM DTT, 25 mM NaCl, 2.5 mM phosphoenolpyruvate, […], 30 mg/ml pyruvate kinase, 10 mg/ml lactate dehydrogenase, 40 mM ATP, and 800 μM peptide (LRRASLG, American Peptide, Sunnyvale, Calif.) is added a DMSO solution of a compound of the present invention to a final concentration of 30 μM. The resulting mixture is incubated at 30° C. for 10 min. The reaction was initiated by the addition of 10 μL of Aurora-2 stock solution to give a final concentration of 70 nM in the assay. The rates of reaction are obtained by monitoring absorbance at 340 nm over a 5 minute read time at 30° C. using a BioRad Ultramark plate reader (Hercules, Calif.). The Ki values are determined from the rate data as a function of inhibitor concentration.

JAK-3 = molecular target: T4, JAK-3 (Homo sapiens, UniProt P52333); assay: JAK3 inhibition assay (ELISA, Poly (Glu, Ala, Tyr) coated plates); settings: 2 μM ATP
T4 sequence (P52333 1-1124): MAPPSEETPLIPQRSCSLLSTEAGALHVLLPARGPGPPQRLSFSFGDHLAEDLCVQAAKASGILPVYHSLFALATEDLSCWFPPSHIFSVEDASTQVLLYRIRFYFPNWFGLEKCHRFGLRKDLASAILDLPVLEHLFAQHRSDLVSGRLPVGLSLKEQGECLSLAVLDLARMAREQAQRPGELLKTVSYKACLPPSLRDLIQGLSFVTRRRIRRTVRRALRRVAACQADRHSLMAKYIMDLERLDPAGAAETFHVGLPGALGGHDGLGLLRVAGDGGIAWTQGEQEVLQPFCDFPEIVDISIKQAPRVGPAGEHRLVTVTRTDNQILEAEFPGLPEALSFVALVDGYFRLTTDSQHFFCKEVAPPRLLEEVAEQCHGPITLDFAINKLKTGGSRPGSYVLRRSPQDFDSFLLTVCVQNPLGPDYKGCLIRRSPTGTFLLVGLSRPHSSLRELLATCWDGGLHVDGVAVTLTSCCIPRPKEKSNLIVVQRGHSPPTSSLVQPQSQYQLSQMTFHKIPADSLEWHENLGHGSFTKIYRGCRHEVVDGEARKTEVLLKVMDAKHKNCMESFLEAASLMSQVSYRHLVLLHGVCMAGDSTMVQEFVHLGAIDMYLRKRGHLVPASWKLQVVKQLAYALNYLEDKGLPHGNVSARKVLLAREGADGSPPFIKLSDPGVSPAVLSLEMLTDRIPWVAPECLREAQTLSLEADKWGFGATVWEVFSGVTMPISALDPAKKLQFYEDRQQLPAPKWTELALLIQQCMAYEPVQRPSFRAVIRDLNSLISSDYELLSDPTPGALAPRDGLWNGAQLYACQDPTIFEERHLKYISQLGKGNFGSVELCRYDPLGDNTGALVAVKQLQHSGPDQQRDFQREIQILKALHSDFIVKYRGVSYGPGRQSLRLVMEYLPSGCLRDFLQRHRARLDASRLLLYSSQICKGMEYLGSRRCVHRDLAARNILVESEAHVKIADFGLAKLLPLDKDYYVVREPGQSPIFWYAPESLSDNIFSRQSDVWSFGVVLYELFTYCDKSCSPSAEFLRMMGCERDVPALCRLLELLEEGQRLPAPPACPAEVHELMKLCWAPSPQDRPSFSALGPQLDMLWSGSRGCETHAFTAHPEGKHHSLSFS
Protocol: Compound inhibition of JAK was assayed by the method described by G. R. Brown, et al, Bioorg. Med. Chem. Lett. 2000, vol. 10, pp 575-579 in the following manner. Into Maxisorb plates, previously coated at 4° C. with Poly (Glu, Ala, Tyr) 6:3:1 then washed with phosphate buffered saline 0.05% and Tween-(PBST), was added 2 μM ATP, 5 mM MgCl2, and a solution of compound in DMSO. The reaction was started with JAK enzyme and the plates incubated for 60 minutes at 30° C. The plates were then washed with PBST, 100 μL HRP-Conjugated 4G10 antibody was added, and the plate incubated for 90 minutes at 30° C. The plate was again washed with PBST, 100 μL TMB solution is added, and the plates were incubated for another 30 minutes at 30° C. Sulfuric acid (100 μL of 1M) was added to stop the reaction and the plate is read at 450 nm to obtain the optical densities for analysis to determine Ki values.

T1 sequence (P12931 whole entry): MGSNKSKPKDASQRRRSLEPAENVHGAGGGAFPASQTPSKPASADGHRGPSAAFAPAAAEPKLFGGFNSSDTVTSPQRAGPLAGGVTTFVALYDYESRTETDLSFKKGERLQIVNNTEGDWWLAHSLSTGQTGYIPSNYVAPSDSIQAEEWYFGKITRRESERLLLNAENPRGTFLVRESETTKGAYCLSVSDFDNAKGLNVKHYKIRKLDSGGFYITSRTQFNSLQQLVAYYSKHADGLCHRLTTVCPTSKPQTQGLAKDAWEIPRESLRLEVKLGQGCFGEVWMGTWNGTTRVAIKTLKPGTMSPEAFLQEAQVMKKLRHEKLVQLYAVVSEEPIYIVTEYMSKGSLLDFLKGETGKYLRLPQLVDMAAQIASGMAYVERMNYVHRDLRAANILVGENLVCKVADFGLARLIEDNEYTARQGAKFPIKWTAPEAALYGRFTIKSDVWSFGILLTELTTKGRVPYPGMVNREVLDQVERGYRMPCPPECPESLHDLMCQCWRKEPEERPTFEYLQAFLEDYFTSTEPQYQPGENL

| SMILES | Ki (human Src kinase) | Ki (PDK-1) | Ki (Aurora-2) | Ki (JAK-3) |
| --- | --- | --- | --- | --- |
| c1ccc(Nc2ncn(-c3cc(N[C@H]4CCCNC4)ncn3)n2)cc1 [Compound I-103, [6-(3-Phenylamino-[1,2,4]triazol-1-yl)-pyrimidin-4-yl]-piperidin-3-yl-amine] | < 500 nM | < 1000 nM | 100 to 1000 nM | – |
| NS(=O)(=O)c1ccc(Nc2ncn(-c3ccnc(N[C@H]4CCCNC4)c3)n2)cc1 [Compound I-104, 3-(S)-{4-[3-(4-Sulfamoyl-phenylamino)-[1,2,4]triazol-1-yl]-pyridin-2-ylamino}-piperidine] | – | < 1000 nM | – | – |
| CCCN(CC1CC1)c1cc(-n2cnc(Nc3ccccc3)n2)ccn1 [Compound I-125, cyclopropylmethyl-[4-(3-phenylamino-[1,2,4]triazol-1-yl)-pyridin-2-yl]-propyl-amine] | > 1000 nM | – | – | – |

The next lines start with the values.

| Ki (human Src kinase) | Ki (PDK-1) | Ki (Aurora-2) | Ki (JAK-3) | SMILES |
| --- | --- | --- | --- | --- |
| > 1000 nM | – | – | – | CC1CCCCN1c1cc(-n2cnc(Nc3ccccc3)n2)ccn1 (centres unmarked) [Compound I-126, [1-(2-methyl-3,4,5,6-tetrahydro-2H-[1,2′]bipyridinyl-4′-yl)-1H-[1,2,4]triazol-3-yl]-phenyl-amine] |
| > 1000 nM | – | – | > 1000 nM | CN(c1cc(-n2cnc(Nc3ccccc3)n2)ccn1)C1CCCCC1 [Compound I-133] |
